Test results as given in the supplement of paper PMC11451515.

Key:
Conditions in all cases: 48 h
SEM cells [1] = experiment: AUC of viability dose-response curve (% viability x log10 dose units); higher = less sensitive
Method in brief: (§1)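 Seeding of medium-adapted leukemia cells was at 500 or 1000 cells/well in 1536-well plates, followed by 48 h at 37°C with library compounds in DMSO at 11 threefold doses from 47 μM to 0.79 nM. CellTiter-Glo One luminescence was normalised per plate to DMSO and cell-free wells and fitted as a four-parameter log-logistic function of log10 dose. Area under the curve was integrated by trapezoidal rule, with curves exceeding full viability scaled and curves failing quality control removed.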

P12-Ichikawa [2] = experiment: as above
Method in brief: as §1

NOMO1 [3] = experiment: as above
Method in brief: as §1

SEM cells [4] = experiment: cell viability relative to DMSO control; higher = less cytotoxic
Method in brief: (§2)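 Library compounds in DMSO were pin-dosed in an 11-point threefold series (47 μM to 0.79 nM) onto leukemia cells in 1536-well plates (5 μl). Plates held 500 cells/well of NOMO1 or SEM or 1000 cells/well of P12-Ichikawa, each adapted for at least four passages in each medium. Luminescence was read with CellTiter-Glo One after 48 h at 37°C. Viability means the per-plate percentage relative to DMSO wells, using cell-free wells as background.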

P12-Ichikawa [5] = experiment: as above
Method in brief: as §2

NOMO1 [6] = experiment: as above
Method in brief: as §2

COC(=O)Nc1ccc(-c2nc(N3CCOCC3)c3cnn(C4CCN(C(=O)OC)CC4)c3n2)cc1
AUC of viability dose-response curve
Conditions	NOMO1 [3]	P12-Ichikawa [2]	SEM cells [1]
HPLM + 10% dialyzed FBS	337	343	337
RPMI 5 mM glucose + 10% FBS	392	339	375
RPMI 5 mM glucose + 10% dialyzed FBS	336	331	382

Cn1cc(CNCC2CCN(c3ncc(C(=O)NO)cn3)CC2)c2ccccc21
AUC of viability dose-response curve
Conditions	NOMO1 [3]	P12-Ichikawa [2]	SEM cells [1]
HPLM + 10% dialyzed FBS	268	262	231
RPMI 5 mM glucose + 10% FBS	276	255	238
RPMI 5 mM glucose + 10% dialyzed FBS	271	273	239

NC1(C(=O)N[C@@H](CCO)c2ccc(Cl)cc2)CCN(c2ncnc3[nH]ccc23)CC1
AUC of viability dose-response curve
Conditions	NOMO1 [3]	P12-Ichikawa [2]	SEM cells [1]
HPLM + 10% dialyzed FBS	409	391	375
RPMI 5 mM glucose + 10% FBS	413	362	378
RPMI 5 mM glucose + 10% dialyzed FBS	423	378	356

Cn1cc(/C=C/C(=O)c2cccc(F)c2)cc1/C=C/C(=O)NO
AUC of viability dose-response curve
Conditions	NOMO1 [3]	P12-Ichikawa [2]	SEM cells [1]
HPLM + 10% dialyzed FBS	468	466	474
RPMI 5 mM glucose + 10% FBS	470	475	476
RPMI 5 mM glucose + 10% dialyzed FBS	468	462	469

SEM cells [4], HPLM + 10% dialyzed FBS
Conditions	cell viability [%]
0.000781 µM	123
0.00234 µM	133
0.00702 µM	120
0.0211 µM	129
0.0632 µM	136
0.19 µM	120
0.569 µM	137
1.71 µM	128
5.12 µM	137
15.4 µM	132
46.1 µM	118

CCCCn1c(=O)n(Cc2ccccc2F)c(=O)c2nc(Cc3ccc(NC(C)=O)cc3)[nH]c21
AUC of viability dose-response curve
Conditions	HPLM + 10% dialyzed FBS	RPMI 5 mM glucose + 10% FBS	RPMI 5 mM glucose + 10% dialyzed FBS
P12-Ichikawa [2]	425	409	410
SEM cells [1]	452	442	444

cell viability [%]
Conditions	NOMO1 [6]	P12-Ichikawa [5]	SEM cells [4]
HPLM + 10% dialyzed FBS, 0.000781 µM	97.6	93.4	101
HPLM + 10% dialyzed FBS, 0.00234 µM	155	95.6	98.7
HPLM + 10% dialyzed FBS, 0.00702 µM	75.7	94.6	87.6
HPLM + 10% dialyzed FBS, 0.0211 µM	24.9	90.1	109
HPLM + 10% dialyzed FBS, 0.0632 µM	52.4	88.6	104
HPLM + 10% dialyzed FBS, 0.19 µM	77.6	88.8	84.9
HPLM + 10% dialyzed FBS, 0.569 µM	86	89.4	89.8
HPLM + 10% dialyzed FBS, 1.71 µM	76.5	79.6	97
HPLM + 10% dialyzed FBS, 5.12 µM	78.6	85.5	98.2
HPLM + 10% dialyzed FBS, 15.4 µM	68.6	83.3	81.1
HPLM + 10% dialyzed FBS, 46.1 µM	71.2	92.8	93.7
RPMI 5 mM glucose + 10% FBS, 0.000781 µM	82.3	87.9	101
RPMI 5 mM glucose + 10% FBS, 0.00234 µM	82.9	87.8	102
RPMI 5 mM glucose + 10% FBS, 0.00702 µM	78.1	89.9	105
RPMI 5 mM glucose + 10% FBS, 0.0211 µM	79.5	85	89.5
RPMI 5 mM glucose + 10% FBS, 0.0632 µM	82.5	94.5	90.3
RPMI 5 mM glucose + 10% FBS, 0.19 µM	77.8	88.3	86.9
RPMI 5 mM glucose + 10% FBS, 0.569 µM	83.9	82.7	88.1
RPMI 5 mM glucose + 10% FBS, 1.71 µM	82.4	75.5	97.6
RPMI 5 mM glucose + 10% FBS, 5.12 µM	79.5	82.5	92.1
RPMI 5 mM glucose + 10% FBS, 15.4 µM	86.7	79.2	96.1
RPMI 5 mM glucose + 10% FBS, 46.1 µM	76.9	89.1	99.5
RPMI 5 mM glucose + 10% dialyzed FBS, 0.000781 µM	107	88.2	92.9
RPMI 5 mM glucose + 10% dialyzed FBS, 0.00234 µM	108	82.1	91.3
RPMI 5 mM glucose + 10% dialyzed FBS, 0.00702 µM	106	87.2	98.7
RPMI 5 mM glucose + 10% dialyzed FBS, 0.0211 µM	104	91.3	81.5
RPMI 5 mM glucose + 10% dialyzed FBS, 0.0632 µM	125	90.5	110
RPMI 5 mM glucose + 10% dialyzed FBS, 0.19 µM	59.5	78.6	85.5
RPMI 5 mM glucose + 10% dialyzed FBS, 0.569 µM	57.7	86.3	85
RPMI 5 mM glucose + 10% dialyzed FBS, 1.71 µM	89.6	90.7	99
RPMI 5 mM glucose + 10% dialyzed FBS, 5.12 µM	69.4	85.9	97.3
RPMI 5 mM glucose + 10% dialyzed FBS, 15.4 µM	63.8	79.7	90.9
RPMI 5 mM glucose + 10% dialyzed FBS, 46.1 µM	68.8	83	91.8

COC1=C(N2CCNC(C)C2)C(=CC3=C1N(\C=C(C(O)=O)/C3=O)C4CC4)F (stereo unspecified)
cell viability [%]
Conditions	NOMO1 [6]	P12-Ichikawa [5]	SEM cells [4]
HPLM + 10% dialyzed FBS, 0.000781 µM	89.4	101	74.8
HPLM + 10% dialyzed FBS, 0.00234 µM	82.7	105	88.8
HPLM + 10% dialyzed FBS, 0.00702 µM	103	112	83.1
HPLM + 10% dialyzed FBS, 0.0211 µM	115	101	84.2
HPLM + 10% dialyzed FBS, 0.0632 µM	105	91.1	51.8
HPLM + 10% dialyzed FBS, 0.19 µM	123	111	66.3
HPLM + 10% dialyzed FBS, 0.569 µM	103	106	55.2
HPLM + 10% dialyzed FBS, 1.71 µM	117	106	51.2
HPLM + 10% dialyzed FBS, 5.12 µM	95.2	98.1	13.9
HPLM + 10% dialyzed FBS, 15.4 µM	92.8	101	21.6
HPLM + 10% dialyzed FBS, 46.1 µM	77.2	87.5	18.1
RPMI 5 mM glucose + 10% FBS, 0.000781 µM	100	102	98
RPMI 5 mM glucose + 10% FBS, 0.00234 µM	87.7	105	95.1
RPMI 5 mM glucose + 10% FBS, 0.00702 µM	88.6	108	116
RPMI 5 mM glucose + 10% FBS, 0.0211 µM	99.5	99.6	96
RPMI 5 mM glucose + 10% FBS, 0.0632 µM	96	88.2	53.2
RPMI 5 mM glucose + 10% FBS, 0.19 µM	96.8	105	92.3
RPMI 5 mM glucose + 10% FBS, 0.569 µM	96.6	100	58.5
RPMI 5 mM glucose + 10% FBS, 1.71 µM	104	106	61.7
RPMI 5 mM glucose + 10% FBS, 5.12 µM	20.3	17.8	44.8
RPMI 5 mM glucose + 10% FBS, 15.4 µM	111	96.7	37.9
RPMI 5 mM glucose + 10% FBS, 46.1 µM	103	76.9	25.6
RPMI 5 mM glucose + 10% dialyzed FBS, 0.000781 µM	97.6	94.5	73.7
RPMI 5 mM glucose + 10% dialyzed FBS, 0.00234 µM	86.9	101	73.3
RPMI 5 mM glucose + 10% dialyzed FBS, 0.00702 µM	98.2	99.2	79.9
RPMI 5 mM glucose + 10% dialyzed FBS, 0.0211 µM	94.3	104	83.1
RPMI 5 mM glucose + 10% dialyzed FBS, 0.0632 µM	100	95.8	48.8
RPMI 5 mM glucose + 10% dialyzed FBS, 0.19 µM	110	98.1	60.2
RPMI 5 mM glucose + 10% dialyzed FBS, 0.569 µM	94	99.9	48.7
RPMI 5 mM glucose + 10% dialyzed FBS, 1.71 µM	99.3	104	38.5
RPMI 5 mM glucose + 10% dialyzed FBS, 5.12 µM	74.2	101	13.4
RPMI 5 mM glucose + 10% dialyzed FBS, 15.4 µM	99.1	99.8	26.6
RPMI 5 mM glucose + 10% dialyzed FBS, 46.1 µM	95.8	78.6	12.2
